Earlier results, collected in PMC6784077 (Viruses, 2019).

Question: With enfuvirtide as the substance, how does the t1/2 read?
Answer: Its t1/2 is ~ 1.5 h.
